The record followed here is US11033607B2, “Peptides and methods for preventing ischemic tissue injury” (University Health Network, priority 2012, dated 2021).

Test [1] relates to WT mice subjected to LAD ligation. Description: Myocardial infarction by LAD coronary artery ligation after 14-day peptide infusion, infarct size by TTC. The test is classed as in vivo, mouse. The note with it: 4 days post-MI, mean±SE. The source says:
After 2 weeks of continuous peptide infusion, animals were re-anesthesized with i.p ketamine/xylazine and underwent permanent ligation of the proximal left anterior descending (LAD) coronary artery to generate an experimental myocardial infarction (MI), as previously described (Ohta et al. 2004), with the surgeon blinded to treatment groups. At day 4 post-MI, animals were sacrificed and hearts excised for measurement of infarct size (FIG. 1B). This timepoint allows accurate measurement of infarct area prior to onset of cardiac rupture events (Noyan-Ashraf et al. 2005)
Freshly excised hearts were washed twice in cold PBS to remove excess blood, and cut into 2 mm sections perpendicular to the long axis. The sections were incubated at 37° C. in 2% 2,3,5-triphenyltetrazolium chloride (TTC) for 15 min, after which they were washed with PBS and fixed in 4% paraformaldehyde for 1 h before image acquisition using a digital scanner. Image J software (NIH, USA) was used to measure infarct area (TTC unstained white area) and total left ventricle (LV) area. Measurements were performed by two independent investigators blinded to treatment groups, and percent infarct size was calculated as the average of both measurements (infarct area/total LV area×100%).

The test system of test [2] is isolated perfused hearts of WT mice. Put plainly: LDH release in coronary effluents of isolated perfused hearts undergoing I/R injury. Further details: species or system mouse. The note with it: pretreatment 6 nmol/L, vs untreated control. On the procedure: To further ascertain the protective actions of GLP-1(28-36)^amide, LDH release was measured in coronary effluents from the isolated perfused hearts as an indicator of cellular necrosis and death. […] Pretreatment with the GLP-1(28-36)^amide peptide therefore helps prevent cell death following an ischemic event and is useful for the treatment or prevention of ischemic tissue injury and ischemic heart disease.

Test [3] has as its system primary human coronary artery smooth muscle cells (hCSMCs). Description: cAMP assay (enzymatic immunoassay) in hCSMCs. The test is classed as cell-based. Here is the method: After 24 h serum-deprivation, cells were pre-treated with the phosphodiesterase inhibitor IBMX (250 uM) for 30 min, after which the peptide of interest and/or vehicle PBS was added to the media to a final concentration of 30 nM for GLP-1 peptides and Exendin-4, and 10 uM for Isoproterenol and Forskolin. After 10 min drug treatment, cells were lysed and total intracellular cAMP release was measured using an enzymatic immunoassay kit (Cayman Chemicals, Mich.) as per manufacturer's protocol.
Background: Changes in cAMP serve as a functional read-out for many G protein-coupled receptors.

Test [4] has as its system primary ventricular cardiomyoctyes isolated from neonatal WT mice. Put plainly: cAMP assay in neonatal mouse ventricular myocytes. The test is classed as cell-based. Particulars: 30 nM, 10 min, IBMX 250 uM pretreatment, vs PBS or scrambled peptide. On the procedure:
(§1) Neonatal mouse ventricular myocytes (FIG. 9A) and atrial HL-1 myocyte cell lines (FIG. 9B) were pretreated with 250 uM IBMX for 30 min followed by treatment with GLP-1(28-36) and SCRAM(28-36) (30 nM each) or IPE and Forsk (10 uM each) or bicarbonate (25 mM) for 10 min. Cells were then lysed for measurement of cytoplasmic cAMP levels. Data represent mean±SE (n=3; triplicate wells for each replicate). After 24 h serum-deprivation, cells were pre-treated with the phosphodiesterase inhibitor IBMX (250 uM) for 30 min, after which the peptide of interest and/or vehicle PBS was added to the media to a final concentration of 30 nM for GLP-1 peptides and Exendin-4, and 10 uM for Isoproterenol and Forskolin. After 10 min drug treatment, cells were lysed and total intracellular cAMP release was measured using an enzymatic immunoassay kit (Cayman Chemicals, Mich.) as per manufacturer's protocol.

The subject of test [5] is HL-1 cells. Description: cAMP assay in HL-1 atrial myocyte cell line. The test is classed as cell-based, mouse. Particulars: HL-1 atrial cardiomyocyte cell line, 30 nM, 10 min, IBMX 250 uM pretreatment. Here is the method:
as §1

Test [6] relates to Akt, Erk1/2, CREB and eNOS. Put plainly: Western blots of heart lysates from pre-treated mice. The class given is in vivo, mouse. The note with it: organs collected on day 18, pre-treated hearts. An excerpt:
Organs were collected on day 18 as shown in the experimental model set out in FIG. 1B and Western blots of heart lysates were processed.
(In western blotting, separated proteins are transferred to a membrane and probed.)

Test [7] deals with mouse model of ischemic stroke. Description: Mouse model of ischemic stroke after 28 days cerebral ventricle infusion.
Experimental: Peptides corresponding to the C-terminal domain of GLP-1 as described herein including GLP-1(28-36)^amide are tested in a mouse model of ischemic stroke. GLP-1(28-36)^amide is infused via Alzet® osmotic mini pumps brain infusion kits, specialized for targeted infusion into cerebral ventricles. After 28 days of GLP-1(28-36)^amide infusion, stroke is generated, after which brain infarct sizes are determined by TTC staining.
Protein lysates from brain tissue are extracted and the expression of survival kinases is probed by Western blots.
Test [8] concerns isolated WT mice hearts. Description: Ex vivo I/R injury, LVDP in presence of soluble AC inhibitor KH7 or transmembrane AC inhibitor Ddox.
Experimental: Male, 10-12 week old, C57BI/6 mice were anesthesized with i.p ketamine (100 mg/kg)/xylazine (10 mg/kg)/heparin (1000 IU/kg), and the heart excised quickly, cannulated through the aorta, and perfused retrogradely with Kreb's Heinslet buffer in a Langendorff apparatus as previously described (Ban et al. 2008). […] A small plastic balloon connected to a pressure transducer was inflated inside the LV to measure LV end systolic (LVESP) and end diastolic pressure (LVEDP) obtained from computer analysis (AcqKnowledge 3.7.1. Biopack System, Goleta, Calif.). LVEDP was maintained at 4-8 mm Hg throughout the experiment. After 20 min of equilibration to allow the balloon to adjust inside the LV, hearts were perfused with buffer for 20 min, followed by 20 min perfusion with peptide of interest (FIG. 1a). Global ischemia was then generated by clamping inflow to the heart for 30 min, after which reperfusion was reinstated for 40 min. In the untreated control group, hearts were perfused for a total of 40 min prior to ischemia. LV developed pressure (LVDP) was calculated by subtracting LVEDP from LVESP. Functional recovery of LV function was calculated as LVDP at the end of reperfusion as a percentage of LVDP prior to ischemia.
Where [9] appears, read: 14-day pre-infusion 18.5 pmol/kg/min.
The mark [10] stands for this setting: with sAC inhibitor KH7 (2.4 uM).
The mark [11] stands for this setting: with tmAC inhibitor Ddox (2,5 dideoxyadenosine, 12 uM).
The mark [12] stands for this setting: 14-day pre-infusion 3.5 pmol/kg/min.

Several values for one entry are separate records, joined by “and”; a condition that tells them apart may be missing. Identical values can stand only once.

H-FIAWLVKGR-NH2 [GLP-1(28-36)^amide]: the “% LV infarct size” value in test [1] (setting [9]) was 24.9±2.6% and 24.9±2.4%. For the same substance, the “LDH release in coronary effluent” value in test [2] was “significantly lower concentration of LDH”. In addition, the “intracellular cAMP, dose dependence” value in test [3] is on record as “dose-dependent increases in intracellular cAMP”. The “cAMP release in presence of tmAC inhibitor Ddox” value in test [3] (Ddox 25 uM) is recorded as “did not prevent the increase in cAMP”. For the same substance, the “cAMP release in presence of sAC inhibitor KH7” value in test [3] (KH7 25 uM) is recorded as “abolished”. For the same substance, the “increase in cAMP release” value in test [3] (without AC inhibitor) is 2 fold. The cAMP response entry in test [4] is on record as “no cAMP response was detected”. For the same substance, the “intracellular cAMP release” value in test [5] is listed as “no intracellular cAMP release”. For the same substance, the “activation of Akt, Erk1/2, CREB and eNOS (Western blot of heart lysates)” value in test [6] was “enhanced activation of Akt, Erk1/2, CREB and eNOS”. Moreover, the “brain infarct size (TTC staining)” value in test [7] (28 days infusion into cerebral ventricles before stroke) is listed as “smaller infarct sizes”. The “expression of survival kinases in brain tissue (Western blot)” value in test [7] (mouse, in vivo) was “upregulation of survival kinases”. Further, the “LVDP at the end of reperfusion” value in test [8] (setting [10]) amounted to 25.2±1.7 mmHg; in test [8] (setting [11]), 67.6±5.8 mmHg.
Consider H-AGKFWRILV-NH2 [SCRAM(28-36)^amide], for which the “% LV infarct size” value in test [1] (setting [9]) came out at 32.4±1.8%. Moreover, the “LVDP at the end of reperfusion” value is 36.4±5.2 mmHg in test [8] (setting [10]) and 37.6±5.3 mmHg in test [8] (setting [11]).
On to “H-HAEGTFTSDVSSYLEGQAAKEFIAWLVKGR-NH2 [GLP-1(7-36)^amide]”, for which the “% LV infarct size” value in test [1] (setting [12]) was 23.0±1.9% and 23.0%. Further, the “LVDP at the end of reperfusion” value was 73.1±5.3 mmHg in test [8] (setting [10]) and 27.1±5.3 mmHg in test [8] (setting [11]).
For the substance “H-EGTFTSDVSSYLEGQAAKEFIAWLVKGR-NH2 [GLP-1(9-36)^amide]”, the “% LV infarct size” value in test [1] (setting [12]) came out at 26.1±1.4%.
